In patent publication US6635479B1, “Hypothalamus-specific polypeptides” (The Scripps Research Institute, priority 1996, dated 2003):
Ends that are not written are not given here.

Columns and labels:
[1] = system: synaptically-coupled rat hypothalamic neurons; experiment: voltage clamp recording of postsynaptic currents in cultured hypothalamic neurons; type: cell-based
Description: To test this hypothesis, 10-day cultures of synaptically-coupled rat hypothalamic neurons were prepared and postsynaptic currents were recorded under voltage clamp.
Rat hypothalamus from 18-day embryos was cultured for 10 days in vitro. The mediobasal hypothalamus was removed from embryonic day 18 Sprague Dawley rats. The tissue was enzymatically digested in a mild protease solution (10 U/ml papain and 0.2 mg/ml L-cysteine in Earle's balanced salt solution) for 30 minutes. Next, the tissue was pelleted, and the protease solution was removed. Tissue was then suspended in standard tissue culture medium (glutamate- and […] DMEM supplemented with 10% fetal bovine serum, 100 U/ml penicillin/streptomycin, and 6 gm/l glucose) and then triturated into a single-cell suspension. Cells were washed and pelleted an additional three times. The single-cell suspension was plated onto 22 mm^2 glass coverslips that had been coated with high-molecular-weight (540,000 Da) poly-D-lysine. High-density cultures (200,000/cm^2) were used for all experiments. Hypothalamic neural cultures were maintained in a Napco 3600 incubator (37 degree Celsius and 5% CO2) until they were ready for use. To limit non-neuronal cell proliferation cytosine arabinofuranoside (1 μM) was added to the tissue culture medium 1 day after plating.
Synaptically coupled hypothalamic neurons were recorded in voltage clamp with a whole cell pipette (holding potential=−60 mV). This recording is typical of 9 of 12 cells examined under these conditions. […] Inset boxes show higher resolution of the events indicated by the dotted line. Both boxes (in FIGS. 7A and B) were recorded with an identical delay after hcrt2 administration. A less mature hypothalamic neuron after 4 days of culture was unresponsive to 1 μM hcrt2 (FIG. 7B). Pipette solution contained 128 mM KMeSO4, 27 mM KCl, 0.4 mM EGTA, 1 mM ATP, and 0.5 mM GTP.

[2] = system: synaptically coupled hippocampal dentate granule neurons in culture; experiment: voltage clamp recording in cultured hippocampal dentate granule neurons; type: cell-based
[3] = body temperature by telemetry after intracerebroventricular infusion; type: in vivo, rats
Description: (§1) Synthetic, amidated hcrt2 peptide at different concentrations was infused intracerebroventricularly in rats and body temperature by was monitored telemetry. Stereotactic ablation studies have previously implicated the dorsal-lateral hypothalamus in feeding behavior, blood pressure, and central regulation of immune function, although precise nuclei have not been correlated with these activities. A threshold-type response was obtained in which, at the highest dose, 10 μg, body temperature dropped from 37.7 to 36.7 degrees Celsius over 30 minutes following administration, then recovered to normal over 2 hours. Food intake was monitored over 2 hours following administration and a 40% reduction in food intake was measured at a dose of 5 μg. […] The presumed target cells of hypocretin may not be very accessible by this unphysiological mode of administration. Local injection or intravenous administration of hypocretin might be more suitable for physiological studies.

[4] = food intake after intracerebroventricular infusion; type: in vivo, rats; conditions: 5 μg ICV; monitored over 2 hours following administration
Description: as §1

[5] = 1 μM applied to bath, 10 days in vitro, holding potential −60 mV
[6] = 1 μM, 10-day cultures, voltage clamp

In the case of “hcrt2: synthetic peptide corresponding to amidated hcrt2; preprohypocretin residues about 70 to 96 (SEQ ID NO:10; unamidated form SEQ ID NO:9) (PGPPGLQGRLQRLLQANGNHAAGILTM-NH2)”, the “cells showing the typical recording (increased PSC frequency)” value [1, 5] is reported as 9 of 12, the “increase in frequency of postsynaptic events (PSCs)” value [1, 5] is reported as no more than 400% and the “cells showing no response” value [1, 6] is reported as 25%. For the same substance, the “neurons tested showing substantial, reversible increase in the frequency of postsynaptic currents” value [1, 6] was 75%, the “response of less mature hypothalamic neuron after 4 days of culture” value ([1]; 1 μM, 4 days of culture (FIG. 7B)) was “unresponsive” and the “frequency of PSCs after washout of the peptide” value ([1]; after washout of 1 μM) was “returned to normal baseline levels”. The “electrical responses in voltage clamp experiments (FIGS. 7A-7B legend)” value ([1]; application of 1 μg, isolated in vitro rat hypothalamic cells) was “produced electrical responses in adult but not immature neurons”, the “response of hypothalamic neurons in culture for only 3-5 days” value ([1]; neurons 3-5 days in culture) was “little response” and the “response of hippocampal dentate granule neurons” value [2] was “no response”. For the same substance, the “body temperature after administration” value ([3]; 10 μg (highest dose) ICV, dropped from 37.7 over 30 minutes) was 36.7 degrees Celsius, the “time to recovery of body temperature to normal” value ([3]; 10 μg ICV) was 2 h and the “reduction in food intake” value [4] was 40%.
